Laboratory results as given in ChEMBL document CHEMBL1127897, “Cucurbitacin F derivatives, anti-HIV principles from cowania mexicana” (Bioorg Med Chem Lett, 1994).
Converted amounts (≈) assume the structure as drawn.

Legend:
H9 [1] = test: Tested for anti-HIV activity against acutely infected H9 cells, activity expressed as EC50.; assay type: functional, cell-based; details: Homo sapiens
H9 [2] = test: Concentration required for […] against acutely infected H9 cells; assay type: functional, cell-based; details: Homo sapiens
[3] = Evaluated for the therapeutic index value of the compound.; assay type: functional

| Structure (SMILES) | EC50 (H9 [1]) [µg/mL] | IC50 (H9 [2]) [µg/mL] | Therapeutic index [3] |
| --- | --- | --- | --- |
| CC(C)(O)CCC(=O)[C@](C)(O)C1[C@H](O)C[C@@]2(C)[C@@H]3CC=C4[C@@H](C[C@H](O)[C@@H](O)C4(C)C)[C@]3(C)C(=O)C[C@]12C (some centres not stated) | 0.8 (≈ 1.54 µM) | 9.3 (≈ 17.9 µM) | 11.6 |
| CC(C)(O)/C=C/C(=O)[C@](C)(O)C1[C@H](O)C(=O)[C@@]2(C)[C@@H]3CC=C4[C@@H](C[C@H](O)[C@@H](O)C4(C)C)[C@]3(C)C(=O)C[C@]12C (some centres not stated) | 0.3 (≈ 0.563 µM) | 5.1 (≈ 9.57 µM) | 17 |
| CC(C)(O)CCC(=O)[C@](C)(O)C1[C@H](O)C(=O)[C@@]2(C)[C@@H]3CC=C4[C@@H](C[C@H](O)[C@@H](O)C4(C)C)[C@]3(C)C(=O)C[C@]12C (some centres not stated) | 2.5 (≈ 4.68 µM) | 38 (≈ 71.1 µM) | 15.2 |
| CC(C)(O)/C=C/C(=O)[C@](C)(O)[C@H]1[C@H](O)C[C@@]2(C)[C@@H]3CC=C4[C@@H](C[C@H](O)[C@@H](O)C4(C)C)[C@]3(C)C(=O)C[C@]12C [CUCURBITACIN F] | 0.06 (≈ 0.116 µM) | 0.16 (≈ 0.308 µM) | 2.7 |
